Results reported in the NIST ThermoML archive (doi:10.1021/je901043q).
Numbers after ± are expanded uncertainties.

Assay: xn = mol fraction of the nth substance listed
Conditions: 101 kPa, Liquid

CCCCn1cc[n+](C)c1.N#C[S-] [1-butyl-3-methylimidazolium thiocyanate] + CCCCCCCCO
Conditions | mass density [kg/m3] | viscosity [mPa·s]
298.15 K, x1 = 0.0874 | 847.17 ± 0.4 | 9.062 ± 0.26
298.15 K, x1 = 0.1352 | 860.64 ± 0.39 | 10.03 ± 0.28
298.15 K, x1 = 0.2208 | 884.32 ± 0.39 | 12.08 ± 0.33
298.15 K, x1 = 0.3599 | 921.24 ± 0.4 | 16.3 ± 0.44
298.15 K, x1 = 0.4693 | 949.07 ± 0.42 | 20.44 ± 0.55
298.15 K, x1 = 0.5739 | 974.82 ± 0.46 | 24.86 ± 0.67
298.15 K, x1 = 0.675 | 998.86 ± 0.52 | 29.44 ± 0.79
298.15 K, x1 = 0.7673 | 1020.12 ± 0.64 | –
298.15 K, x1 = 0.8721 | 1043.42 ± 0.81 | 39.69 ± 1.1
298.15 K, x1 = 0.9619 | 1062.27 ± 0.98 | 45.09 ± 1.2
298.15 K, x1 = 1 | 1069.79 ± 1 | 51.74 ± 0.55
308.15 K, x1 = 0.0874 | 840.37 ± 0.4 | 6.504 ± 0.19
308.15 K, x1 = 0.1352 | 853.92 ± 0.39 | 7.237 ± 0.21
308.15 K, x1 = 0.2208 | 877.72 ± 0.39 | 8.726 ± 0.25
308.15 K, x1 = 0.3599 | 914.82 ± 0.4 | 11.7 ± 0.33
308.15 K, x1 = 0.4693 | 942.78 ± 0.42 | 14.47 ± 0.4
308.15 K, x1 = 0.5739 | 968.64 ± 0.46 | 17.39 ± 0.48
308.15 K, x1 = 0.675 | 992.79 ± 0.52 | 20.38 ± 0.56
308.15 K, x1 = 0.7673 | 1014.13 ± 0.63 | –
308.15 K, x1 = 0.8721 | 1037.47 ± 0.8 | 26.63 ± 0.73
308.15 K, x1 = 0.9619 | 1056.33 ± 0.97 | 29.99 ± 0.83
308.15 K, x1 = 1 | 1063.89 ± 1 | 34.87 ± 0.96
318.15 K, x1 = 0.0874 | 833.52 ± 0.4 | 4.842 ± 0.15
318.15 K, x1 = 0.1352 | 847.19 ± 0.39 | 5.396 ± 0.17
318.15 K, x1 = 0.2208 | 871.11 ± 0.39 | 6.516 ± 0.19
318.15 K, x1 = 0.3599 | 908.42 ± 0.4 | 8.719 ± 0.25
318.15 K, x1 = 0.4693 | 936.52 ± 0.42 | 10.67 ± 0.3
318.15 K, x1 = 0.5739 | 962.5 ± 0.46 | 12.72 ± 0.36
318.15 K, x1 = 0.675 | 986.77 ± 0.52 | 14.79 ± 0.41
318.15 K, x1 = 0.7673 | 1008.17 ± 0.62 | –
318.15 K, x1 = 0.8721 | 1031.58 ± 0.79 | 18.95 ± 0.53
318.15 K, x1 = 0.9619 | 1050.45 ± 0.95 | 21.14 ± 0.59
318.15 K, x1 = 1 | 1058.02 ± 1 | 24.19 ± 0.68
328.15 K, x1 = 0.0874 | 826.65 ± 0.41 | 3.691 ± 0.12
328.15 K, x1 = 0.1352 | 840.37 ± 0.4 | 4.158 ± 0.14
328.15 K, x1 = 0.2208 | 864.48 ± 0.39 | 5.003 ± 0.16
328.15 K, x1 = 0.3599 | 902.01 ± 0.41 | 6.654 ± 0.2
328.15 K, x1 = 0.4693 | 930.28 ± 0.43 | 8.141 ± 0.24
328.15 K, x1 = 0.5739 | 956.41 ± 0.46 | 9.644 ± 0.28
328.15 K, x1 = 0.675 | 980.77 ± 0.52 | 11.14 ± 0.32
328.15 K, x1 = 0.7673 | 1002.28 ± 0.61 | –
328.15 K, x1 = 0.8721 | 1025.72 ± 0.77 | 14.06 ± 0.4
328.15 K, x1 = 0.9619 | 1044.62 ± 0.94 | 15.59 ± 0.44
328.15 K, x1 = 1 | 1052.19 ± 1 | 16.7 ± 0.48
338.15 K, x1 = 0.0874 | 819.63 ± 0.41 | 2.884 ± 0.1
338.15 K, x1 = 0.1352 | 833.53 ± 0.4 | 3.272 ± 0.11
338.15 K, x1 = 0.2208 | 857.82 ± 0.4 | 3.928 ± 0.13
338.15 K, x1 = 0.3599 | 895.62 ± 0.41 | 5.233 ± 0.16
338.15 K, x1 = 0.4693 | 924.05 ± 0.43 | 6.379 ± 0.19
338.15 K, x1 = 0.5739 | 950.33 ± 0.47 | 7.509 ± 0.22
338.15 K, x1 = 0.675 | 974.82 ± 0.52 | 8.648 ± 0.25
338.15 K, x1 = 0.7673 | 996.4 ± 0.61 | –
338.15 K, x1 = 0.8721 | 1019.88 ± 0.76 | 10.82 ± 0.31
338.15 K, x1 = 0.9619 | 1038.82 ± 0.93 | 11.94 ± 0.35
338.15 K, x1 = 1 | 1046.43 ± 0.98 | 12.73 ± 0.37
348.15 K, x1 = 0.0874 | 812.55 ± 0.42 | 2.306 ± 0.088
348.15 K, x1 = 0.1352 | 826.58 ± 0.41 | 2.633 ± 0.097
348.15 K, x1 = 0.2208 | 851.13 ± 0.4 | 3.171 ± 0.11
348.15 K, x1 = 0.3599 | 889.21 ± 0.41 | 4.233 ± 0.14
348.15 K, x1 = 0.4693 | 917.85 ± 0.43 | 5.1 ± 0.16
348.15 K, x1 = 0.5739 | 944.27 ± 0.47 | 5.987 ± 0.18
348.15 K, x1 = 0.675 | 968.89 ± 0.52 | 6.874 ± 0.21
348.15 K, x1 = 0.7673 | 990.57 ± 0.61 | –
348.15 K, x1 = 0.8721 | 1014.14 ± 0.75 | 8.592 ± 0.26
348.15 K, x1 = 0.9619 | 1033.09 ± 0.91 | 9.462 ± 0.28
348.15 K, x1 = 1 | 1040.7 ± 0.97 | 9.98 ± 0.3
